Test system: 857933-349-R-J2-PDC complex spheroid viability
Experiment: Anticancer human tumor 857933-349-R-J2-PDC patient-derived colon adenocarcinoma cell line growth inhibition [POLQ]
Conditions: for IC50: curve of first compound; for viability, T/C: stronger effect = lower value
Procedure, shortened: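 Complex spheroid viability model combining PDC tumour cells with endothelial (HUVEC) and MSC stromal cells. Novobiocin, ART-558 or RP6685 were tested singly and in combination with standard and investigational anticancer drugs. Each was titrated in half-log steps from near clinical Cmax, or from 10 microM where Cmax was unknown.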

[1] = second compound 0.0316 µM, first compound 0.0316 µM
[2] = second compound 0.0316 µM, first compound 0.1 µM
[3] = second compound 0.1 µM, first compound 0.0316 µM
[4] = second compound 0.1 µM, first compound 0.1 µM
[5] = second compound 0.316 µM, first compound 0.0316 µM
[6] = second compound 0.316 µM, first compound 0.1 µM
[7] = second compound 1 µM, first compound 0.0316 µM
[8] = second compound 1 µM, first compound 0.1 µM
[9] = second compound 3.16 µM, first compound 0.0316 µM
[10] = second compound 3.16 µM, first compound 0.1 µM
[11] = second compound 10 µM, first compound 0.0316 µM
[12] = second compound 10 µM, first compound 0.1 µM
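Also: spheroids exposed to compounds for seven days before readout.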

Compound CC[C@@]1(O)C(=O)OCc2c1cc1n(c2=O)Cc2cc3c(CN(C)C)c(O)ccc3nc2-1 + Nc1ccc(C#CCN(C(=O)Cc2ncc(C(F)(F)F)cc2C(F)(F)F)c2ccc(F)cc2)nn1 has an IC50 (second compound 0.0316 µM) of 71.7 nM, an IC50 (second compound 0.1 µM) greater than 100 nM and an IC50 (second compound 0.316 µM) of 77.3 nM. The IC50 (second compound 1 µM) was 86.9 nM, the IC50 (second compound 3.16 µM) was 63.8 nM and the IC50 (second compound 10 µM) was 51.9 nM. For the same compound, the viability, T/C (second compound 0.0316 µM, first compound 0.000316 µM) was 89.2%, the viability, T/C (second compound 0.0316 µM, first compound 0.001 µM) was 103% and the viability, T/C (second compound 0.0316 µM, first compound 0.00316 µM) was 88.6%. The viability, T/C (second compound 0.0316 µM, first compound 0.01 µM) was 70.7%, the viability, T/C [1] was 66.2% and the viability, T/C [2] was 44%. For the same compound, the viability, T/C (second compound 0.1 µM, first compound 0.000316 µM) was 98.9%, the viability, T/C (second compound 0.1 µM, first compound 0.001 µM) was 95.7% and the viability, T/C (second compound 0.1 µM, first compound 0.00316 µM) was 94.8%. It also gave a viability, T/C (second compound 0.1 µM, first compound 0.01 µM) of 82.3%, a viability, T/C [3] of 71% and a viability, T/C [4] of 50.6%. For the same compound, the viability, T/C (second compound 0.316 µM, first compound 0.000316 µM) was 107%, the viability, T/C (second compound 0.316 µM, first compound 0.001 µM) was 121% and the viability, T/C (second compound 0.316 µM, first compound 0.00316 µM) was 87.5%. It also gave a viability, T/C (second compound 0.316 µM, first compound 0.01 µM) of 87%, a viability, T/C [5] of 73.3% and a viability, T/C [6] of 43%. It also gave a viability, T/C (second compound 1 µM, first compound 0.000316 µM) of 99.5%, a viability, T/C (second compound 1 µM, first compound 0.001 µM) of 100% and a viability, T/C (second compound 1 µM, first compound 0.00316 µM) of 97.2%. It also gave a viability, T/C (second compound 1 µM, first compound 0.01 µM) of 94.4%, a viability, T/C [7] of 74% and a viability, T/C [8] of 46.7%. It also gave a viability, T/C (second compound 3.16 µM, first compound 0.000316 µM) of 92.6%, a viability, T/C (second compound 3.16 µM, first compound 0.001 µM) of 96% and a viability, T/C (second compound 3.16 µM, first compound 0.00316 µM) of 92.1%. For the same compound, the viability, T/C (second compound 3.16 µM, first compound 0.01 µM) was 76.6%, the viability, T/C [9] was 61.8% and the viability, T/C [10] was 42.9%. It also gave a viability, T/C (second compound 10 µM, first compound 0.000316 µM) of 75.2%, a viability, T/C (second compound 10 µM, first compound 0.001 µM) of 86.1% and a viability, T/C (second compound 10 µM, first compound 0.00316 µM) of 92.5%. The viability, T/C (second compound 10 µM, first compound 0.01 µM) was 76.6%, the viability, T/C [11] was 61.3% and the viability, T/C [12] was 35.6%.
O=C(c1cc(Cc2n[nH]c(=O)c3ccccc23)ccc1F)N1CCN(C(=O)C2CC2)CC1 + Cc1cccc(N(C)C(=O)C2C(O)CCN2c2nc(C)cc(C(F)(F)F)c2C#N)c1 was tested, and the IC50 (second compound 0.0316 µM) was greater than 10000 nM, the IC50 (second compound 0.1 µM) was greater than 10000 nM and the IC50 (second compound 0.316 µM) was greater than 10000 nM. It also gave an IC50 (second compound 1 µM) greater than 10000 nM, an IC50 (second compound 3.16 µM) greater than 10000 nM and an IC50 (second compound 10 µM) greater than 10000 nM. The viability, T/C [1] was 109%, the viability, T/C [2] was 99.4% and the viability, T/C (second compound 0.0316 µM, first compound 0.316 µM) was 85.3%. The viability, T/C (second compound 0.0316 µM, first compound 1 µM) was 72.5%, the viability, T/C (second compound 0.0316 µM, first compound 3.16 µM) was 93.4% and the viability, T/C (second compound 0.0316 µM, first compound 10 µM) was 84.7%. It also gave a viability, T/C [3] of 109%, a viability, T/C [4] of 101% and a viability, T/C (second compound 0.1 µM, first compound 0.316 µM) of 93.8%. It also gave a viability, T/C (second compound 0.1 µM, first compound 1 µM) of 83.8%, a viability, T/C (second compound 0.1 µM, first compound 3.16 µM) of 69.7% and a viability, T/C (second compound 0.1 µM, first compound 10 µM) of 72.9%. The viability, T/C [5] was 107%, the viability, T/C [6] was 98.1% and the viability, T/C (second compound 0.316 µM, first compound 0.316 µM) was 70.5%. For the same compound, the viability, T/C (second compound 0.316 µM, first compound 1 µM) was 96.2%, the viability, T/C (second compound 0.316 µM, first compound 3.16 µM) was 89.8% and the viability, T/C (second compound 0.316 µM, first compound 10 µM) was 80.3%. It also gave a viability, T/C [7] of 84.7%, a viability, T/C [8] of 80.9% and a viability, T/C (second compound 1 µM, first compound 0.316 µM) of 86.2%. It also gave a viability, T/C (second compound 1 µM, first compound 1 µM) of 79%, a viability, T/C (second compound 1 µM, first compound 3.16 µM) of 73.7% and a viability, T/C (second compound 1 µM, first compound 10 µM) of 82.6%. It also gave a viability, T/C [9] of 67%, a viability, T/C [10] of 79.2% and a viability, T/C (second compound 3.16 µM, first compound 0.316 µM) of 81.6%. The viability, T/C (second compound 3.16 µM, first compound 1 µM) was 87.2%, the viability, T/C (second compound 3.16 µM, first compound 3.16 µM) was 72.8% and the viability, T/C (second compound 3.16 µM, first compound 10 µM) was 92.2%. The viability, T/C [11] was 86.5%, the viability, T/C [12] was 110% and the viability, T/C (second compound 10 µM, first compound 0.316 µM) was 82.6%. It also gave a viability, T/C (second compound 10 µM, first compound 1 µM) of 84%, a viability, T/C (second compound 10 µM, first compound 3.16 µM) of 71.3% and a viability, T/C (second compound 10 µM, first compound 10 µM) of 79.9%.
